Measurements reported in patent publication US20040040554A1 (priority 2000, published 2004).
Where two headings read alike, the source gives them in different places.

Tests used:
[1] = test system: influenza A virus (A/PR/8/34 strain)
[2] = test system: influenza A virus (A/PR/8/34 strain); type: cell-based; settings: read-out: Inhibiting Activity Cell Fusion (IC50)
[3] = test system: influenza A virus (A/PR/8/34 strain); type: cell-based; settings: read-out: Inhibiting Activity Infection (IC50)

“Pentenyl(5-acetamido-3,5-dideoxy-D-glycero-α-D-galacto-2-nonulopyranosylic Acid)-O-β-D-galactopyranosyl-(1→4)-O-β-D-glucopyranoside [vii]” was tested, and the “Inhibiting Activity Erythrocyte Aggregation” value [1] was 133.3 µM, the IC50 [2] was 745 µM and the IC50 [3] was 124 µM.
